Measured values reported in US11166931B2, “Induction of arteriogenesis with an NO (nitric oxide) donor” (G. Pohl-Boskamp GmbH & Co. KG, priority 2012, dated 2021).
Entries after “also recorded” stand apart in the source; their conditions may differ.

What was measured:
Sprague-Dawley rats [1] = assay: Ventricular arrhythmias during FPO, Lown classification and VPB score; conditions: rat, in vivo
Sprague-Dawley rats [2] = assay: Infarct size by TTC staining after final permanent occlusion; type: in vivo, rat
arteriogenesis = conditions: nitroglycerin: administered continuously; cited from earlier work
Sprague-Dawley rats [3] = assay: ST segment elevation (ECG) during final permanent LAD occlusion (FPO), rat repetitive ischemia protocol (RIP) arteriogenesis model; type: in vivo

CC(=O)Oc1ccccc1C(=O)O [ASA+NTG-PLACEBO]
VPB-Score (Sprague-Dawley rats [1]): 5.50
rats with class IIIa arrhythmias (Lown) during FPO (Sprague-Dawley rats [1]): 16.7%
rats with class IVb arrhythmias (Lown) during FPO (Sprague-Dawley rats [1]): 83.3%
Infarct size (percentage of the area of the left ventricle) (Sprague-Dawley rats [2]; rat, in vivo): 13.92 ±1.71%

CC(=O)Oc1ccccc1C(=O)O [ASA, acetyl salicylic acid]
effect on arteriogenesis described in the art (in words) (arteriogenesis): inhibitor of arteriogenesis
ST elevation / ECG parameters during FPO compared to controls (in words) (Sprague-Dawley rats [3]; 5 DAYS RIP): impairment of ECG parameters
infarct size / infarct volume compared to other groups (in words) (Sprague-Dawley rats [2]; 5 DAYS RIP): increase of infarct volumes

O=[N+]([O-])O[C@H]1CO[C@H]2[C@@H]1OC[C@H]2O[N+](=O)[O-] [ISDN, isosorbide dinitrate]
arrhythmias during FPO compared to controls (in words) (Sprague-Dawley rats [1]): less arrhythmias
ST elevation / ECG parameters during FPO compared to controls (in words) (Sprague-Dawley rats [3]; rat, in vivo): non-significantly decreased; also recorded: decreases in ST elevation
infarct size / infarct volume compared to other groups (in words) (Sprague-Dawley rats [2]; rat, in vivo): reduced infarct volumes

O=[N+]([O-])OCC(CO[N+](=O)[O-])O[N+](=O)[O-] [NTG, nitroglycerin]
arrhythmias during FPO compared to controls (in words) (Sprague-Dawley rats [1]): decreased serious arrhythmias
effect on arteriogenesis described in the art (in words) (arteriogenesis): not able to induce angiogenesis (neovascularisation) or arteriogenesis
ST elevation / ECG parameters during FPO compared to controls (in words) (Sprague-Dawley rats [3]; rat, in vivo): significantly attenuated ST elevation
infarct volume decreased compared to the control group (Sprague-Dawley rats [2]; rat, in vivo): more than 50%
